Key:
middle-aged mice = assay: contextual serial discrimination (CSD) task, contextual memory; type: in vivo, C57/Bl6 mice; settings: for effect on SCM scores as compared to vehicle: Experiment 1, middle-aged mice, 9 days oral; for strength of contextual memory (SCM) score (% correct responses - % interference responses): Experiment 2, middle-aged mice, NS vs vehicle
Excerpt: The memory task and apparatus has been fully described previously ([Chauveau et al., 2009]). The contextual serial discrimination (CSD) task is based on two successive discriminations in a four-hole board which can be retrieved with the help of specific temporal and contextual cues associated with each of them.
The acquisition phase took place in room A where animals learned two consecutive spatial discriminations (D1 and D2; Figure 1A) which differed by the color and texture of the floor and were separated by a 2-min delay interval. For both D1 and D2, 10 20-mg food pellets were available during the 6-min exploration sessions; for D2 specifically, the baited hole was consistently located in the opposite symmetrical hole. Environmental cues made of colored paper sheets were positioned at 1.00 m above the board. At the end of the acquisition phase, mice returned in the animal’s room for 24 h. Animals retained for the test phase in the present study for both Experiments 1 and 2 have eaten at least 7–8 pellets/10 during both acquisitions.
Mice were replaced on the D1 floor in the board without any pellet in the apparatus and were allowed to freely explore for 6 min during which the number of head-dips in each hole was counted. This allowed measures of the % of “correct responses” (head-dips into the hole previously baited on the same floor-context), the % of “interference responses” (head-dips into the hole previously baited at D2, on the other floor-context) (Figure 1B) and of the “strength” of “contextual memory” score (SCM) (% correct responses - % interference responses). Thus, since correct responses are based on the use of the internal context (color of the floor) and interferent responses are based on the use of spatial allocentric cues previously associated with the other floor, thus the trend of SCM score toward a positive difference represents the gain of internal contextual memory, at the expense of allocentric spatial one.
The two last administrations were delivered 1 h before the acquisition and test phases.
(§1) Independent groups of mice (N = 10 per group) were used. An additional group composed by young vehicle mice (4–5 months young-vehicles, N = 10) was added for determination of the aging effect on both memory and phosphorylated CREB immunoreactivities, as compared to middle-aged Vehicles. For the immunohistochemical study, animals submitted to D1 memory testing were compared to “naïve” mice isolated in the colony room (with N = 5 per group; Naïve condition) and that underwent the food deprivation procedure and drug treatments as behaving animals (Test condition).

[1] = system: phosphorylated CREB (pCREB); assay: pCREB immunohistochemistry after behavioral testing; type: in vivo, C57/Bl6 mice; settings: test condition
Experimental: as §1
Thirty minutes after completion of the test session, mice were deeply anesthetized (Avertin, 10 mL/kg intraperitoneally i.p.), and perfused transcardially with an ice-cold solution of 4% paraformaldehyde in phosphate buffer (0.1 M, pH 7.4). After perfusion, brains were removed and post-fixed overnight in the same fixative at 4°C. Brains were then put in a sucrose solution (30% in Tris Buffer 0.1 M, pH 7.4) during 24 h. They were then frozen and cut in […] coronal free-floating sections with a freezing microtome (Leica) to proceed to immunochemistry.
Total CREB (tCREB) and phosphorylated CREB (pCREB) immunostainings were performed as described in full previously ([Vandesquille et al., 2013]; [Dominguez et al., 2014], [2016]). Countings were made in the following brain regions according to [Paxinos and Franklin (2001)] atlas: the CA1 of the dorsal (dCA1) and ventral (vCA1) hippocampus, the prelimbic cortex (PL), the dorsal striatum (St), the basolateral amygdala nucleus (BLA) and the medial septum nucleus (MS). Digital images were captured at 10X magnification using an Olympus (BX50) and an imaging analysis system (ImageJ®). At least six serial sections for each brain region were analyzed using a computerized image analysis system (Visiolab 2000®, Biocom, and V4.50). Quantification was expressed as mean number of positive nuclei per mm^2.

[2] = system: acetylcholine extracellular levels; assay: intracerebral microdialysis, acetylcholine in mPFC and ventral hippocampus; type: in vivo, Wistar (Han) rats; settings: at 30 min
Experimental: The locomotor activity of the rats was recorded simultaneously during the sampling as a control method to assess a possible contribution of the handling stress and drug administration to microdialysis data.
Male Wistar (Han) rats, weighting about 265 g, were used for the experiment. At their arrival at facility, rats were housed in humidity and temperature controlled room on a 12h light/dark cycle (light on at 6:00 h) with water and food available ad libitum. Rats were anaesthetized with isoflurane and stereotaxically implanted with two guide cannula: one into the ventral hippocampus (vHPC: Interaural + 3.7 mm, Lateral + 4.8 mm, Ventral -3.8 mm providing the final -8.0 mm for the tip of the microdialysis probe) and the second into the medial prefrontal cortex (mPFC: Interaural + 12.2 mm, Lateral - 0.5 mm, Ventral -1.6 mm providing the final -5.6 mm for the tip of the microdialysis probe). After a recovery of 5 days, a microdialysis probe was inserted into the each respective guide cannula of awake rat. The probes were perfused at a constant flow-rate of 1 µl/min with sterile artificial CSF solution in the absence of an AChE inhibitor (148 mM NaCl, 4 mM KCl, 0.8 mM MgCl2, 1.4 CaCl2, 1.2 mM Na2HPO4, 0.3 mM NaH2PO4, pH 7.2). Following 120-min stabilization period, the samples were collected every 30 minutes. The first 3 samples (-90 to 0 min) were taken for determination of basal extracellular levels of ACh. […] After finalizing the experiment, the animals were sacrificed by an overdose of isoflurane and dislocation of the neck.
The levels of ACh in the microdialysates were determined by high-performance liquid chromatography (HPLC) linked to a postcolumn immobilized enzyme reactor followed by electrochemical detection. Briefly, the HPLC system (HTEC-500, Eicom Corp.) included a pulse-free microflow pump, a degasser and an amperometric detector equipped with a platinum electrode. The potential of the working electrode vs. Ag/AgCl ref. electrode was set to +0.45 V vs. an Ag/AgCl reference elctrode. Samples were injected by use of a CMA/200 Refrigerated Microsampler (CMA/Microdialysis). The chromatograms were recorded and integrated by use of a computerized data acquisition system (DataApex, Prague, Czech Republic). ACh was separated on a 150 x 2.0 I.D. mm narrow-bore column, packed with C18 polymer gel, 4 μm particle size. The enzyme reactor AC-ENZYMPAK II (Eicom Corp.) was used. The mobile phase was a 50 mM potassium hydrogen carbonate buffer containing 3.7 mM sodium 1-octanesulfonate, 0.13 mM EDTA-2Na, final pH 7.2. […] Determination of ACh levels in the groups of rats treated with drugs and vehicle was performed in blind conditions.

H3 receptors = system: H3 receptors; set-up: method as in Panayi et al., 2014; settings: rats, mice, monkeys memory paradigms; ref Panayi et al., 2014; cited from earlier work
mice = assay: primary observation (IRWIN) test; type: in vivo; settings: pharmacological doses, alone or in combination, data not shown
in vivo = assay: in vivo
Experimental: The sampling times are 30 min, 1, 2, 4, and 6 h. In each mouse, two time points of blood sampling were performed. Plasma was extracted from the blood sample by centrifugation (+4°C, 3000 g, 10 min) and stored at -80°C. Then, plasma samples were sent in dry ice to MDS (MDS Pharma Services, Switzerland) for the pharmacokinetic analysis.

[3] = middle-aged mice, Donepezil 0.3 mg/kg (ANOVA factor)

Question: Which “effect on SCM scores as compared to vehicle” value (shortened to “effect … compared to vehicle”) (middle-aged mice; Donepezil alone at all doses (0.1 and 0.3 mg/kg)) does the source give for `COc1cc2c(cc1OC)C(=O)C(CC1CCN(Cc3ccccc3)CC1)C2` (centres unmarked) [Donepezil, reference compound] here?
Answer: Its value is “did not show significant effect”.

Question: What about the “strength of contextual memory (SCM) score (% correct responses - % interference responses)” value (middle-aged mice; Donepezil 0.3 mg/kg alone) of the same molecule?
Answer: Its value is “+7.48 ± 3.60”.

Question: And the “increase of pCREB expression in the MS” value ([1]; Donepezil alone (0.3 mg/kg) as compared to vehicle)?
Answer: Its value is “+174.3%”.

Question: And the “effect on pCREB immunopositive cells in the MS” value [1, 3]?
Answer: Its value is “significant increase”.

Question: What about the “effect on pCREB immunopositive cells in the dCA1” value [1, 3] of the same molecule?
Answer: Its value is “significant increase”.

Question: What about the “maximal increase of ACh levels” value ([2]; rat mPFC, Donepezil 0.1 mg/kg i.p.) of the same molecule?
Answer: The value was 175 % of predrug values.

Question: And the “maximal increase of ACh levels” value ([2]; rat mPFC, Donepezil 0.3 mg/kg i.p.)?
Answer: The value was 216 % of predrug values.

Question: And the “maximal increase of ACh levels” value ([2]; rat vHPC, Donepezil 0.1 mg/kg i.p.)?
Answer: Its value is 180 % of predrug values.

Question: And the “maximal increase of ACh levels” value ([2]; rat vHPC, Donepezil 0.3 mg/kg i.p.)?
Answer: Its value is 207 % of predrug values.

Question: With `NC(=O)c1ccc(OCCCN2CC3CCCC3C2)cc1` (centres unmarked) [S 38093] as the molecule, how does the “effect … compared to vehicle” value (middle-aged mice; S 38093 0.1 mg/kg alone) read?
Answer: The value was “did not show significant effect”.

Question: What about the “effect … compared to vehicle” value (middle-aged mice; S 38093 1.0 mg/kg alone) of the same molecule?
Answer: Its value is “did not show significant effect”.

Question: What about the “strength of contextual memory (SCM) score (% correct responses - % interference responses)” value (middle-aged mice; S 38093 0.1 mg/kg alone) of the same molecule?
Answer: Its value is -14.3 ± 5.76.

Question: And the “strength of contextual memory (SCM) score (% correct responses - % interference responses)” value (middle-aged mice; S 38093 0.3 mg/kg alone)?
Answer: The value was “+5.19 ± 6.68”.

Question: What about the “mean pharmacological dose with procognitive properties” value (H3 receptors) of the same molecule?
Answer: Its value is 0.3 mg/kg.

Question: What about the observable clinical signs (mice) of the same molecule?
Answer: The observable clinical signs was “did not induce any observable clinical signs”.

Question: And the AUC (in vivo; C57/Bl6, mouse, po, 0.1 mg/kg)?
Answer: The AUC was 9.56 ng·h/mL.

Question: What about the Cmax (in vivo; C57/Bl6, mouse, po, 0.1 mg/kg) of the same molecule?
Answer: The Cmax was 3.04 ng/mL.

Question: What about the Tl/2 (in vivo; C57/Bl6, mouse, po, 1 mg/kg) of the same molecule?
Answer: The Tl/2 was 2.37 h.

Question: And the AUC (in vivo; C57/Bl6, mouse, po, 1 mg/kg)?
Answer: The AUC was 92.4 ng·h/mL.

Question: What about the Cmax (in vivo; C57/Bl6, mouse, po, 1 mg/kg) of the same molecule?
Answer: The Cmax was 55.6 ng/mL.

Question: And the “plasma exposure when administered as a combination” value (in vivo; mouse)?
Answer: The value was “no increase”.

Question: What about the “effect on pCREB immunopositive cells in the dCA1 and the MS” value ([1]; middle-aged mice, S 38093 at both doses (0.1 and 0.3 mg/kg)) of the same molecule?
Answer: The value was “no significant effect”.

Question: What about the “maximal increase of ACh levels” value ([2]; rat mPFC, S 38093 3 mg/kg i.p., n.s.) of the same molecule?
Answer: The value was 158 % of predrug values.

Question: What about the “maximal increase of ACh levels” value ([2]; rat mPFC, S 38093 10 mg/kg i.p.) of the same molecule?
Answer: The value was 234 % of predrug values.

Question: What about the “maximal increase of ACh levels” value ([2]; rat vHPC, S 38093 3 mg/kg i.p.) of the same molecule?
Answer: The value was 153 % of predrug values.

Question: What about the “maximal increase of ACh levels” value ([2]; rat vHPC, S 38093 10 mg/kg i.p.) of the same molecule?
Answer: The value was 184 % of predrug values.

Source: article PMC5177663 (Frontiers in Pharmacology, 2016)
